Tests used:
Assay in all cases: KINOMEscan competitive binding
JAK kinase domains = biological target: T1, JAK kinase domains (Homo sapiens, UniProt O60674); settings: 10 µM, n=1; kinase JAK2(Kin.Dom.2); read-out: Percent inhibition JAK2(Kin.Dom.2)
T1 construct: purchased DiscoverX (KINOMEscan)
Excerpt: The kinases were expressed as fusions to T7 bacteriophage. This is a sensitive, competitive binding assay where test compounds were used to displace immobilized ATP-site binding probe ligands from kinases of interest. The amount of kinase that remained bound to the immobilized probe ligands on the solid support was quantified. Percentage inhibition data were was plotted on kinome trees using the web-based tool KinMap (http://www.kinhub.org/kinmap) ([60]).

PAK3 = biological target: T2, PAK3 (Homo sapiens, UniProt O75914); settings: n=1, read-out: Percent inhibition, PAK3
T2 construct: purchased DiscoverX (KINOMEscan)

PAK4 = biological target: T3, PAK4 (Homo sapiens, UniProt O96013); settings: n=1, read-out: Percent inhibition, PAK4
T3 construct: purchased DiscoverX (KINOMEscan)

PIM1 = biological target: T4, PIM1 (Homo sapiens, UniProt P11309); settings: n=1, read-out: Percent inhibition, PIM1
T4 construct: purchased DiscoverX (KINOMEscan)

PIM2 = biological target: T5, PIM2 (Homo sapiens, UniProt Q9P1W9); settings: n=1, read-out: Percent inhibition, PIM2
T5 construct: purchased DiscoverX (KINOMEscan)

PRKX = biological target: T6, PRKX (Homo sapiens, UniProt P51817); settings: n=1, read-out: Percent inhibition, PRKX
T6 construct: purchased DiscoverX (KINOMEscan)
T6 sequence (P51817 1-358): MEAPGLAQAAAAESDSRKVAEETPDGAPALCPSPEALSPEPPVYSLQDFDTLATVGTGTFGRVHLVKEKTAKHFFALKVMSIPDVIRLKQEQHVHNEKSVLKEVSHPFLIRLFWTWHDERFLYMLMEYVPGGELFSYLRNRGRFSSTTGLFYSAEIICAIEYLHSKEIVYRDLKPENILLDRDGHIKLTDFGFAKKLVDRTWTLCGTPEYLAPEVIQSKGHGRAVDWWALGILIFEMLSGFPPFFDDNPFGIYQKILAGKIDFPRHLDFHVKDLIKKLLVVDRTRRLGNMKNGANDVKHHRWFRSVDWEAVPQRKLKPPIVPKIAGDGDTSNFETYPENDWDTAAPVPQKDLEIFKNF

PTK6 = biological target: T7, PTK6 (Homo sapiens, UniProt Q13882); settings: n=1, read-out: Percent inhibition, PTK6
T7 construct: purchased DiscoverX (KINOMEscan)

RAF1 = biological target: T8, RAF1 (Homo sapiens, UniProt P04049); settings: n=1, read-out: Percent inhibition, RAF1
T8 construct: purchased DiscoverX (KINOMEscan)

SLK = biological target: T9, SLK (Homo sapiens, UniProt Q9H2G2); settings: n=1, read-out: Percent inhibition, SLK
T9 construct: purchased DiscoverX (KINOMEscan)

SNF1LK2 = biological target: T10, SNF1LK2 (Homo sapiens, UniProt Q9H0K1); settings: n=1, read-out: Percent inhibition, SNF1LK2
T10 construct: purchased DiscoverX (KINOMEscan)

SRC = biological target: T11, SRC (Homo sapiens, UniProt P12931); settings: n=1, read-out: Percent inhibition, SRC
T11 construct: purchased DiscoverX (KINOMEscan)

TESK1 = biological target: T12, TESK1 (Homo sapiens, UniProt Q15569); settings: n=1, read-out: Percent inhibition, TESK1
T12 construct: purchased DiscoverX (KINOMEscan)

TGFBR1 = biological target: T13, TGFBR1 (Homo sapiens, UniProt P36897); settings: n=1, read-out: Percent inhibition, TGFBR1
T13 construct: purchased DiscoverX (KINOMEscan)
T13 sequence (P36897 34-503): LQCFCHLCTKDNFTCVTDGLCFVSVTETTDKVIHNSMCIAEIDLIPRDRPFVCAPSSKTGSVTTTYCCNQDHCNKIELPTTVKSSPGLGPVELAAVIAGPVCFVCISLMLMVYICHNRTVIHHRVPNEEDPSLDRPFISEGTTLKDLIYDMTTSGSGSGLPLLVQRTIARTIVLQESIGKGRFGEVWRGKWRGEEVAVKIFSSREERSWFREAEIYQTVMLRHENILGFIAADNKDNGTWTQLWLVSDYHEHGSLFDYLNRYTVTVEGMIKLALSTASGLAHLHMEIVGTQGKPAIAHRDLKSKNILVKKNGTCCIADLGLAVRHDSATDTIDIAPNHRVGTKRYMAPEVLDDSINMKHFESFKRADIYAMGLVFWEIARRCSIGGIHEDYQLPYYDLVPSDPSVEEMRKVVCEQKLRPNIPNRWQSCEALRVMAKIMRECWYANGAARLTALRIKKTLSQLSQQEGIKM

TIE2 = biological target: T14, TIE2 (Homo sapiens, UniProt Q02763); settings: n=1, read-out: Percent inhibition, TIE2
T14 construct: purchased DiscoverX (KINOMEscan)

TNIK = biological target: T15, TNIK (Homo sapiens, UniProt Q9UKE5); settings: n=1, read-out: Percent inhibition, TNIK
T15 construct: purchased DiscoverX (KINOMEscan)

TNK1 = biological target: T16, TNK1 (Homo sapiens, UniProt Q13470); settings: n=1, read-out: Percent inhibition, TNK1
T16 construct: purchased DiscoverX (KINOMEscan)
T16 sequence (Q13470 1-666): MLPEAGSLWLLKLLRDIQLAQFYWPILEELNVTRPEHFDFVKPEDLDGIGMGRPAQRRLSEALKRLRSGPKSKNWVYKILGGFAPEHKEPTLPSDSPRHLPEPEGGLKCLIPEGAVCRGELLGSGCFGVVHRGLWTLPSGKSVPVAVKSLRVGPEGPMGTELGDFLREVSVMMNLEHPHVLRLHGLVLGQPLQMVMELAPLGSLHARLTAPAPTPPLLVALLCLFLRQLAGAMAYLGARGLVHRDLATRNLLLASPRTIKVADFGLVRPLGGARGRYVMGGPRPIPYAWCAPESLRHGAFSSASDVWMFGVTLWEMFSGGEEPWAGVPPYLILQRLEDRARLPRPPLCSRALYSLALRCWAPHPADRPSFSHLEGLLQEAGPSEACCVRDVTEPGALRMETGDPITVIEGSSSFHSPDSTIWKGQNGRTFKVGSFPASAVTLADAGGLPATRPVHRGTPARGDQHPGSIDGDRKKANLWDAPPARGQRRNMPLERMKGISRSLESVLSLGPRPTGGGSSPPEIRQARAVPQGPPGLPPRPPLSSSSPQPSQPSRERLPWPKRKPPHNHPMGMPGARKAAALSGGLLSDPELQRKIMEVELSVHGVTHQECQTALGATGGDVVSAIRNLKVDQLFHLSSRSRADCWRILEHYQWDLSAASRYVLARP

Compound | inhibition at 10 µM (JAK kinase domains) [%] | inhibition at 10 µM (PAK3) [%] | inhibition at 10 µM (PAK4) [%] | inhibition at 10 µM (PIM1) [%] | inhibition at 10 µM (PIM2) [%] | inhibition at 10 µM (PRKX) [%] | inhibition at 10 µM (PTK6) [%] | inhibition at 10 µM (RAF1) [%] | inhibition at 10 µM (SLK) [%] | inhibition at 10 µM (SNF1LK2) [%] | inhibition at 10 µM (SRC) [%] | inhibition at 10 µM (TESK1) [%] | inhibition at 10 µM (TGFBR1) [%] | inhibition at 10 µM (TIE2) [%] | inhibition at 10 µM (TNIK) [%] | inhibition at 10 µM (TNK1) [%]
C[C@@H](Oc1cc(-c2cnc3ccccn23)sc1C(N)=O)c1ccccc1Cl [Compound 8] | 70.2 | 0 | 0 | 76.4 | 0 | 0 | 0 | 0 | 100 | 0 | 0 | 0 | 0 | 0 | 0 | 0
Cc1ccc(O)cc1N(C)c1ccnc(Nc2cccc(S(N)(=O)=O)c2)n1 [Compound 4] | 90.7 | 0 | 0 | 0 | 0 | 0 | 100 | 94.2 | 99.5 | 95.1 | 100 | 79.9 | 100 | 100 | 99.6 | 87.7
COc1cc(Nc2nccc(-c3sc(N)nc3-c3cccc(NC(=O)c4c(F)cccc4F)c3)n2)cc(OC)c1OC [Compound 7] | 0 | 94.9 | 0 | 0 | 0 | 0 | 100 | 100 | 99.8 | 99.4 | 100 | 100 | 72.9 | 100 | 99.9 | 100
CN1CCN(c2ccc(Nc3nccc(-c4cnn5ncccc45)n3)cc2C#N)CC1 [Compound 1] | 86.8 | 85.3 | 95.7 | 99.8 | 99.7 | 0 | 77 | 0 | 98.1 | 69.9 | 99.2 | 0 | 78.8 | 0 | 98.9 | 87.1
Fc1cccc(COc2ccc(Nc3ncnc4c3CN(CCN3CCOCC3)CC4)cc2Cl)c1 [Compound 6] | 0 | 0 | 0 | 0 | 0 | 0 | 0 | 0 | 0 | 0 | 0 | 0 | 0 | 0 | 0 | 0
Cc1ccc(O)cc1Nc1ccnc(Nc2cccc(C(N)=O)c2)n1 [Compound 3] | 80.6 | 0 | 0 | 0 | 0 | 0 | 100 | 74.3 | 83.5 | 96.7 | 100 | 0 | 100 | 97.5 | 99.3 | 80.1
Clc1ccc(Nc2ncc(-c3ccccc3)s2)cc1 [Compound 10] | 0 | 0 | 0 | 0 | 0 | 0 | 0 | 0 | 0 | 0 | 0 | 0 | 0 | 0 | 0 | 0
COc1ccc(Nc2nccc(-c3cnn4ncccc34)n2)cc1 [Compound 2] | 89.7 | 0 | 0 | 0 | 81.1 | 0 | 0 | 0 | 77.9 | 0 | 85 | 0 | 0 | 0 | 93.4 | 90.2
c1ccc(COc2cccc(-c3ccnc4[nH]ccc34)c2)cc1 [Compound 9] | 0 | 0 | 0 | 0 | 0 | 0 | 0 | 0 | 0 | 0 | 0 | 0 | 0 | 0 | 0 | 0
Nc1ncc2c(-c3ccncc3)c[nH]c2n1 [Compound 11] | 0 | 0 | 0 | 0 | 0 | 0 | 0 | 0 | 75.5 | 0 | 93.3 | 0 | 0 | 0 | 93.7 | 0
